Usually MIC stands for the least concentration at which growth counts as inhibited. In general, HC50 refers to the concentration that lyses half of the red blood cells.

Some results are limits rather than exact numbers.

Data set [1] deals with Staphylococcus aureus. Briefly: Antibacterial activity against Staphylococcus aureus ATCC 29213 = CCM 4223 assessed as inhibition of bacterial growth incubated for 24 hrs in presence of BSA by microdilution assay. The data set is classed as functional. (In general: Broth dilution looks for growth in wells or tubes with falling amounts of substance.)
The next data set relates to Enterococcus faecalis. Briefly: Antibacterial activity against Enterococcus faecalis ATCC 29212 = CCM 4224 assessed as inhibition of bacterial growth incubated for 24 hrs by microdilution assay. The data set is classed as functional.
Data set [2] relates to Escherichia coli. Briefly: Antibacterial activity against Escherichia coli ATCC 25922 = CCM 3954 assessed as inhibition of bacterial growth incubated for 24 hrs by microdilution assay. The data set is classed as functional.
Data set [3] deals with Pseudomonas aeruginosa. Briefly: Antibacterial activity against Pseudomonas aeruginosa ATCC 27853 = CCM 3955 assessed as inhibition of bacterial growth incubated for 24 hrs by microdilution assay. The data set is classed as functional.
Data set [4] deals with Staphylococcus aureus. Briefly: Antibacterial activity against Staphylococcus aureus ATCC 29213 = CCM 4223 assessed as inhibition of bacterial growth incubated for 24 hrs by microdilution assay. The data set is classed as functional.
For data set [5], the system named is Escherichia coli. Briefly: Antibacterial activity against Escherichia coli ATCC 25922 = CCM 3954 assessed as inhibition of bacterial growth incubated for 24 hrs in presence of BSA by microdilution assay. The class given is functional.
Data set [6] has as its system Escherichia coli. Briefly: Antibacterial activity against multidrug-resistant Escherichia coli CE5556 expressing CTX-M-15 assessed as reduction in microbial growth incubated for 24 hrs by microdilution assay. The class given is functional.
The subject of data set [7] is Staphylococcus aureus. Briefly: Antibacterial activity against methicillin resistant Staphylococcus aureus 4591/A assessed as reduction in microbial growth incubated for 24 hrs by microdilution assay. The class given is functional.
A short description of data set [8]: Hemolytic activity in human RBC assessed as haemoglobin release measured after 3 hr. The class given is toxicity, cell-based, Erythrocyte. The settings on record: red blood cells (erythrocytes).
Data set [9] concerns Staphylococcus epidermidis. Briefly: Antibacterial activity against Staphylococcus epidermidis CCM 7221 assessed as inhibition of bacterial growth incubated for 24 hrs by microdilution assay. The class given is functional.
Another data set concerns Enterococcus faecium. Briefly: Antibacterial activity against vancomycin resistant Enterococcus faecium 419/ANA assessed as reduction in microbial growth incubated for 24 hrs by microdilution assay. The data set is classed as functional.
Data set [10] concerns Pseudomonas aeruginosa. Briefly: Antibacterial activity against multidrug-resistant Pseudomonas aeruginosa assessed as reduction in microbial growth incubated for 24 hrs by microdilution assay. The class given is functional.
The nature of data set [11]: Gradient chromatographic hydrophobicity index of the compound at pH 3.7 by HPLC analysis. The class given is ADME.

`CCCC/C=C\CCOP(=O)(CCN(CCN)CCN)OCCCCCCOP(=O)(CCN(CCN)CCN)OCC/C=C\CCCC.Cl.Cl.Cl.Cl.Cl.Cl` (stereo not drawn): the MIC stood at 2 µg/mL with Staphylococcus aureus [1]; 4 µg/mL in the data set on Enterococcus faecalis; 1 µg/mL with Escherichia coli [2]; 16 µg/mL with Pseudomonas aeruginosa [3]; 1 µg/mL with Staphylococcus aureus [4]; 2 µg/mL in the data set with Escherichia coli [5]. The MIC in the data set on Escherichia coli [6] was 2 µg/mL; with Staphylococcus aureus [7], 1 µg/mL; in data set [9] it was 0.5 µg/mL; in the data set with Enterococcus faecium, 32 µg/mL; with Pseudomonas aeruginosa [10], 8 µg/mL. In [8], the HC50 at 3 h is 254 µg/mL. For the same compound, in data set [11], the CHI came to 40.1.

For `CCCCCCCCCCOP(=O)(CCN(CCCN)CCCN)OCCCOP(=O)(CCN(CCCN)CCCN)OCCCCCCCCCC.Cl.Cl.Cl.Cl.Cl.Cl` (stereo not drawn), the MIC is 1 µg/mL in the data set with Staphylococcus aureus [1]; 1 µg/mL with Enterococcus faecalis; 1 µg/mL in the data set on Escherichia coli [2]; 2 µg/mL in the data set with Pseudomonas aeruginosa [3]; 1 µg/mL in the data set on Staphylococcus aureus [4]; 4 µg/mL with Escherichia coli [5]. Moreover, the MIC came out at 1 µg/mL with Escherichia coli [6]; 1 µg/mL with Staphylococcus aureus [7]; 1 µg/mL in data set [9]; 4 µg/mL in the data set with Enterococcus faecium; 2 µg/mL in the data set with Pseudomonas aeruginosa [10]. In data set [8], the HC50 at 3 h amounted to 31.6 µg/mL. In data set [11], the CHI is 43.7.

Consider `CCCCC/C=C\CCOP(=O)(CCN(CCCNC(=N)N)CCCNC(=N)N)OCCCCCOP(=O)(CCN(CCCNC(=N)N)CCCNC(=N)N)OCC/C=C\CCCCC.Cl.Cl.Cl.Cl.Cl.Cl` (stereo not drawn), for which the MIC in the data set on Staphylococcus aureus [1] stood at 1 µg/mL; in the data set on Enterococcus faecalis, 4 µg/mL; in the data set with Escherichia coli [2], 1 µg/mL; with Pseudomonas aeruginosa [3], 8 µg/mL; in the data set with Staphylococcus aureus [4], 1 µg/mL; in the data set on Escherichia coli [5] it was 1 µg/mL. Also, the MIC with Escherichia coli [6] was 1 µg/mL; in the data set with Staphylococcus aureus [7], 1 µg/mL; in [9], 1 µg/mL; with Enterococcus faecium it was 8 µg/mL; with Pseudomonas aeruginosa [10] it was 8 µg/mL. For the same compound, in data set [8], the HC50 at 3 h stood at 121 µg/mL. The compound further had a CHI in data set [11] of 36.4.

As to `CCCCCOP(=O)(CCN(CCN)CCN)OCCCCCCCCOP(=O)(CCN(CCN)CCN)OCCCCC.Cl.Cl.Cl.Cl.Cl.Cl` (stereo not drawn), the MIC with Staphylococcus aureus [1] is 8 µg/mL; in the data set on Enterococcus faecalis, greater than 128 µg/mL; with Escherichia coli [2], 2 µg/mL; in the data set with Pseudomonas aeruginosa [3] it was greater than 128 µg/mL; in the data set with Staphylococcus aureus [4], 8 µg/mL; in the data set with Escherichia coli [5], greater than 128 µg/mL. In addition, the minimal inhibitory concentration (MIC) in the data set on Escherichia coli [6] is greater than 128 µg/mL; with Staphylococcus aureus [7], 8 µg/mL; in [9] it was 2 µg/mL; in the data set on Enterococcus faecium it was greater than 128 µg/mL; with Pseudomonas aeruginosa [10], greater than 128 µg/mL. Besides, the HC50 at 3 h in data set [8] is greater than 200 µg/mL. In data set [11], this compound gave a CHI of 34.7.

Regarding `CCCCCCCCOP(=O)(CCN(CCCN)CCCN)OCCCOP(=O)(CCN(CCCN)CCCN)OCCCCCCCC.Cl.Cl.Cl.Cl.Cl.Cl` (stereo not drawn), the MIC with Staphylococcus aureus [1] was found to be 2 µg/mL; with Enterococcus faecalis it was 8 µg/mL; in the data set with Escherichia coli [2], 2 µg/mL; with Pseudomonas aeruginosa [3] it was 16 µg/mL; with Staphylococcus aureus [4] it was 2 µg/mL; in the data set with Escherichia coli [5], 4 µg/mL. The MIC with Escherichia coli [6] is 4 µg/mL; in the data set with Staphylococcus aureus [7] it was 2 µg/mL; in data set [9] it was 2 µg/mL; with Enterococcus faecium, 64 µg/mL; in the data set on Pseudomonas aeruginosa [10] it was 8 µg/mL. Besides, the HC50 at 3 h in [8] was greater than 500 µg/mL. This compound also showed a CHI in data set [11] of 35.5.

As for `CCCCOP(=O)(CCN(CCCN)CCCN)OCCCCCCCCCCOP(=O)(CCN(CCCN)CCCN)OCCCC.Cl.Cl.Cl.Cl.Cl.Cl` (stereo not drawn), the MIC in the data set with Staphylococcus aureus [1] is 16 µg/mL; in the data set with Enterococcus faecalis, 128 µg/mL; in the data set on Escherichia coli [2] it was greater than 128 µg/mL; in the data set with Pseudomonas aeruginosa [3] it was greater than 128 µg/mL; in the data set with Staphylococcus aureus [4] it was 16 µg/mL; with Escherichia coli [5], greater than 128 µg/mL. The MIC was greater than 128 µg/mL in the data set on Escherichia coli [6]; 8 µg/mL in the data set on Staphylococcus aureus [7]; 4 µg/mL in data set [9]; greater than 128 µg/mL in the data set on Enterococcus faecium; greater than 128 µg/mL in the data set on Pseudomonas aeruginosa [10]. For the same compound, the HC50 at 3 h in [8] was greater than 500 µg/mL. Moreover, in data set [11], the CHI was 27.3.

Values taken from ChEMBL document CHEMBL5120927, “LEGO-Lipophosphonoxins: A Novel Approach in Designing Membrane Targeting Antimicrobials” (J Med Chem, 2022).
